Assay [1] relates to HCT-116. The experiment in a line: Antiproliferative activity against human HCT-116 cells incubated for 72 hrs by MTT assay. The assay is classed as functional, cell-based. Conditions: HCT-116, 72 h.
The test system of assay [2] is MDA-MB-231. As to the kind of experiment: Antiproliferative activity against human MDA-MB-231 cells incubated for 72 hrs by MTT assay. Conditions: MDA-MB-231, 72 h. Type of assay: functional, cell-based. A general note: Tetrazolium dyes change colour on reduction, which living cells bring about.
Assay [3] relates to BT-549. As to the kind of experiment: Antiproliferative activity against human BT-549 cells incubated for 72 hrs by MTT assay. Type of assay: functional, cell-based. Conditions: BT-549, 72 h.
Assay [4] concerns A549. As to the kind of experiment: Antiproliferative activity against human A549 cells incubated for 72 hrs by MTT assay. Particulars: A549, 72 h. Type of assay: functional, cell-based.
Assay [5] concerns the target T1, Bromodomain-containing protein 4 (Homo sapiens, UniProt O60885). As to the kind of experiment: Inhibition of BRD4 BD1 (unknown origin) incubated for 15 mins by TR-FRET method. Background: TR-FRET usually uses a lanthanide donor and a delayed reading to cut background.
The nature of assay [6]: Binding affinity to recombinant PRC2 complex (unknown origin) incubated for 3 hrs in presence of SAM. Also on record: species or system Homo sapiens.
The target in assay [7] is T2, Histone-lysine N-methyltransferase EZH2 (Homo sapiens, UniProt Q15910). As to the kind of experiment: Inhibition of EZH2 (unknown origin).
Target sequence in this assay (Q15910 whole entry): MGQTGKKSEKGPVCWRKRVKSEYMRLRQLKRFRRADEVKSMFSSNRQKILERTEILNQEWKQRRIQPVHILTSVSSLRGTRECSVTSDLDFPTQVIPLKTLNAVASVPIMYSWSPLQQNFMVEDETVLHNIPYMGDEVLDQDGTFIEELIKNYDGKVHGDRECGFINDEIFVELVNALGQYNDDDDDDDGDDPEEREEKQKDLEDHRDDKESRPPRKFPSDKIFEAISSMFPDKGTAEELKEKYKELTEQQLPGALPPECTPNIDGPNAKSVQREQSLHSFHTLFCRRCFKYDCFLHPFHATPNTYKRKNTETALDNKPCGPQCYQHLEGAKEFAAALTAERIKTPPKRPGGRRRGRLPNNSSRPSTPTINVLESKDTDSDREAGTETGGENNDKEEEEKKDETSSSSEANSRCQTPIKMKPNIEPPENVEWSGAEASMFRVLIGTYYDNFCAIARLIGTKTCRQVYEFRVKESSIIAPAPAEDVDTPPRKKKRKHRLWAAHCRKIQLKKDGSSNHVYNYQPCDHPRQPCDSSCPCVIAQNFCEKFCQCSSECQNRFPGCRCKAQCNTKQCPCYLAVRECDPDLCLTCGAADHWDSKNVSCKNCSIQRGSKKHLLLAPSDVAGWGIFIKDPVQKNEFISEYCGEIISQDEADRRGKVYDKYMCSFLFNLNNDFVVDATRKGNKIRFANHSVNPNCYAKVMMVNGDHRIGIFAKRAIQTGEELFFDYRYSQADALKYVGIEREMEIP
In assay [8] the test system is HCT-116. As to the kind of experiment: Inhibition of PRC2 in human HCT-116 cells assessed as reduction in H3K27me3 level at 2 to 8 uM incubated for 48 hrs by Western blotting analysis. Conditions: dose 2-8 µM. The assay is classed as cell-based.
The test system of assay [9] is A549. The experiment in a line: Inhibition of PRC2 in human A549 cells assessed as reduction in H3K27me3 level at 2 to 8 uM incubated for 48 hrs by Western blotting analysis. Type of assay: cell-based. Conditions: dose 2-8 µM. (Immunoblotting shows a protein as a band on a membrane.)
Assay [10] deals with MDA-MB-231. As to the kind of experiment: Inhibition of PRC2 in human MDA-MB-231 cells assessed as reduction in H3K27me3 level at 2 to 8 uM incubated for 48 hrs by Western blotting analysis. The assay is classed as cell-based. Conditions: dose 2-8 µM.
For assay [11], the target named is T1, Bromodomain-containing protein 4. As to the kind of experiment: Inhibition of BRD4 in human A549 cells assessed as reduction in c-Myc level at 2 to 8 uM incubated for 48 hrs by Western blotting analysis. The assay is classed as cell-based. Conditions: dose 2-8 µM.
Assay [12] shares this target. As to the kind of experiment: Inhibition of BRD4 in human HCT-116 cells assessed as reduction in c-Myc level at 2 to 8 uM incubated for 48 hrs by Western blotting analysis. The assay is classed as cell-based. Particulars: dose 2-8 µM.
For assay [13] the target is unchanged. As to the kind of experiment: Inhibition of BRD4 in human MDA-MB-231 cells assessed as reduction in c-Myc level at 2 to 8 uM incubated for 48 hrs by Western blotting analysis. Conditions: dose 2-8 µM. Type of assay: cell-based.
Assay [14] shares this target. The experiment in a line: Inhibition of BRD4 in human HCT-116 cells assessed as increase in p21 level at 2 to 8 uM incubated for 48 hrs by Western blotting analysis. The assay is classed as cell-based. Particulars: dose 2-8 µM.
For assay [15] the target is unchanged. As to the kind of experiment: Inhibition of BRD4 in human A549 cells assessed as increase in p21 level at 2 to 8 uM incubated for 48 hrs by Western blotting analysis. Type of assay: cell-based. Conditions: dose 2-8 µM.
Assay [16] shares this target. The experiment in a line: Inhibition of BRD4 in human MDA-MB-231 cells assessed as increase in p21 level at 2 to 8 uM incubated for 48 hrs by Western blotting analysis. Type of assay: cell-based. Conditions: dose 2-8 µM.
Assay [17] concerns the target T2, Histone-lysine N-methyltransferase EZH2. The experiment in a line: Inhibition of EZH2 in human HCT-116 cells assessed as decrease in H3K27ac level at 2 to 8 uM incubated for 48 hrs by Western blotting analysis. Type of assay: cell-based. Particulars: dose 2-8 µM.
Target sequence in this assay (Q15910 whole entry, looked up): as the sequence (Q15910 whole entry) above
Assay [18] shares this target. As to the kind of experiment: Inhibition of EZH2 in human A549 cells assessed as decrease in H3K27ac level at 2 to 8 uM incubated for 48 hrs by Western blotting analysis. Particulars: dose 2-8 µM. The assay is classed as cell-based.
Target sequence in this assay (Q15910 whole entry, looked up): as the sequence (Q15910 whole entry) above
Assay [19] has the same target. As to the kind of experiment: Inhibition of EZH2 in human MDA-MB-231 cells assessed as decrease in H3K27ac level at 2 to 8 uM incubated for 48 hrs by Western blotting analysis. The assay is classed as cell-based. Particulars: dose 2-8 µM.
Target sequence in this assay (Q15910 whole entry, looked up): as the sequence (Q15910 whole entry) above
Assay [20] relates to A549. The experiment in a line: Induction of apoptosis in human A549 cells assessed as reduction in Bcl-2 protein expression at 2 to 8 uM incubated for 48 hrs by Western blotting analysis. The assay is classed as functional, cell-based. Particulars: dose 2-8 µM.
Assay [21] relates to A549. As to the kind of experiment: Induction of apoptosis in human A549 cells assessed as […] in Bax protein expression at 2 to 8 uM incubated for 48 hrs by Western blotting analysis. Type of assay: functional, cell-based. Conditions: dose 2-8 µM.
Assay [22] concerns the target T2, Histone-lysine N-methyltransferase EZH2. As to the kind of experiment: Inhibition of EZH2 in human HCT-116 cells assessed as decrease in H3K27ac level at 12 uM incubated for 48 hrs by Western blotting analysis. The assay is classed as cell-based.
Target sequence in this assay (Q15910 whole entry, looked up): as the sequence (Q15910 whole entry) above
Assay [23] shares this target. The experiment in a line: Inhibition of EZH2 in human MDA-MB-231 cells assessed as decrease in H3K27ac level at 12 uM incubated for 48 hrs by Western blotting analysis. Type of assay: cell-based.
Target sequence in this assay (Q15910 whole entry, looked up): as the sequence (Q15910 whole entry) above
Assay [24] shares this target. The experiment in a line: Inhibition of EZH2 in human A549 cells assessed as decrease in H3K27ac level at 18 uM incubated for 48 hrs by Western blotting analysis. Type of assay: cell-based.
Target sequence in this assay (Q15910 whole entry, looked up): as the sequence (Q15910 whole entry) above
In assay [25] the test system is HCT-116. As to the kind of experiment: Antiproliferative activity against human HCT-116 cells assessed as reduction in number of colonies incubated for 48 hrs with replacement of normal media every day for 14 days. Type of assay: functional, cell-based. Particulars: dose 2-8 µM.
Assay [26] deals with HCT-116. As to the kind of experiment: Induction of apoptosis in human HCT-116 cells at 2 to 8 uM incubated for 48 hrs by Annexin V-PE/7-AAD staining based flow cytometry analysis. Type of assay: functional, cell-based. Conditions: dose 2-8 µM.
A further assay deals with Cell membrane. As to the kind of experiment: Induction of mitochondrial membrane potential loss in human HCT-116 cells assessed as decrease in red fluorescence incubated for 48 hrs by flow cytometry analysis. Conditions: Mitochondria, dose 2-8 µM.
In assay [27] the test system is HCT-116. As to the kind of experiment: Induction of cell cycle arrest in human HCT-116 cells assessed as accumulation of cells at G0/G1 phase at 2 to 8 uM incubated for 48 hrs by RNAase-A and PI staining based flow cytometry analysis. Conditions: dose 2-8 µM. The assay is classed as functional.
The test system of assay [28] is HCT-116. The experiment in a line: Synergistic antiproliferative activity against human HCT-116 cells at JQ1 and compound 1:1 ratio incubated for 72 hrs by MTT assay. Particulars: HCT-116, 72 h. The assay is classed as functional, cell-based.
In assay [29] the test system is MDA-MB-231. As to the kind of experiment: Synergistic antiproliferative activity against human MDA-MB-231 cells at JQ1 and compound 1:1 ratio incubated for 72 hrs by MTT assay. Conditions: MDA-MB-231, 72 h. The assay is classed as functional, cell-based.
Assay [30] deals with BT-549. The experiment in a line: Synergistic antiproliferative activity against human BT-549 cells at JQ1 and compound 1:1 ratio incubated for 72 hrs by MTT assay. Type of assay: functional, cell-based. Particulars: BT-549, 72 h.
For assay [31], the system named is A549. As to the kind of experiment: Synergistic antiproliferative activity against human A549 cells at JQ1 and compound 1:1 ratio incubated for 72 hrs by MTT assay. Particulars: A549, 72 h. Type of assay: functional, cell-based.

We go through three molecules from ChEMBL document CHEMBL5325470, “Design, synthesis and mechanism studies of dual EZH2/BRD4 inhibitors for cancer therapy” (Bioorg Med Chem, 2023).

Active and inactive are the calls of the source. The calls are words filed in the database; no cut-off is given here.

Regarding `Cc1cc(C)c(CNC(=O)c2cc(NCCCCCNC(=O)C[C@@H]3N=C(c4ccc(Cl)cc4)c4c(sc(C)c4C)-n4c(C)nnc43)cc3c2cnn3C(C)C)c(=O)[nH]1`, the IC50 (as a rule, the concentration at which inhibition is half-maximal) in the assay on HCT-116 [1] was 1.86 µM; in the assay on MDA-MB-231 [2] it was 2.31 µM; in the assay on BT-549 [3] it was 3.97 µM; with A549 [4], 4.63 µM; in [5], 0.134 µM; in [7], 0.082 µM. For the same molecule, the Kd (commonly a measure of binding affinity in units of concentration) in assay [6] turned out to be 0.18 µM. Also, the inhibition result (in the assay on HCT-116 [8]; in the assay on A549 [9]; in the assay on MDA-MB-231 [10]; in assay [11]; in assay [12]; in assay [13]) was “Active” in each case. For the same molecule, the inhibition result in assay [14], in assay [15], in assay [16], in assay [17], in assay [18] and in [19] was “Active” in each case. Besides, the outcome with A549 [20], with A549 [21], with HCT-116 [26] and in the assay on HCT-116 [27] was Active. The inhibition entry in [22], in [23] and in assay [24] was “inactive” throughout. Besides, the Activity result with HCT-116 [25] and in the assay on Cell membrane was “Dose-Dependent Effect” each time.

For `Cc1cc(C)c(CNC(=O)c2cc(-c3ccc(N4CCN(C(C)C)CC4)nc3)cc3c2cnn3C(C)C)c(=O)[nH]1`, the IC50 was determined as 16.9 µM in the assay on HCT-116 [1]; 11.7 µM in the assay on MDA-MB-231 [2]; 15.1 µM with BT-549 [3]; 16.1 µM with A549 [4]; 0.92 µM in the assay with HCT-116 [28]; 1.1 µM in the assay on MDA-MB-231 [29]. Besides, the IC50 in the assay with BT-549 [30] is 4.73 µM; in the assay on A549 [31], 7.48 µM.

On to `CC[C@@H](C)n1cc(C)c2c(C(=O)NCc3c(C)cc(C)[nH]c3=O)cc(-c3ccc(N4CCNCC4)nc3)cc21`, for which the 50% inhibitory concentration (IC50) turned out to be 12.9 µM with HCT-116 [1]; 11.7 µM in the assay with MDA-MB-231 [2]; 9.23 µM with BT-549 [3]; 18.6 µM in the assay on A549 [4]; 1.76 µM in the assay on HCT-116 [28]; 2.6 µM in the assay on MDA-MB-231 [29]. Further, the IC50 was found to be 2.05 µM with BT-549 [30] and 4.34 µM in the assay on A549 [31]. In assay [6], the Kd amounted to 0.0891 µM. The inhibition result in assay [17], in assay [18] and in assay [19] was “inactive” each time.
